Experiments:
[1] = test system: Balb/c mice sensitized to ovalbumin; settings: mouse model of airway allergic eosinophilic inflammation; cited from earlier work
CXCR4 = settings: cited from earlier work
MRL/lpr mice = assay: Peripheral hypercellularity in MRL/lpr lupus prone mice; type: in vivo; settings: single i.v. administration, 100 μg/mouse, counted five days later; p <0.05
Description: Effect of compound (1) and classical anti-inflammatory drugs on peripheral hypercellularity in MRL/lpr mice. MRL/lpr mice (11-13 week-old) received intravenously a single administration of either compound (1) or chalcone 4-Phosphate or indicated molecules in saline (100 μg/mouse of each). The control group received saline only. The number of white blood cells (WBCs)/mL was evaluated by counting cells five days later. The results are expressed as the mean reduction of peripheral WBCs percentage+/−SEM. Statistical significance was assessed using the unpaired t-test. n=number of mice/group; ns=non-significant. […]
The test was as described previously (Schall et al., 2012; Briand et al., 2014). […] After centrifugation, white blood cells (WBCs) resuspended in phosphate buffer saline containing fetal calf serum were stained with acridine orange/propidium iodide and counted using a LUNA FL apparatus (logos Biosystems, Annandale, USA). The number of living WBCs in each group was compared to the one counted in the control group and the decrease of peripheral cell number was calculated. […] The results are expressed as the mean decreased of peripheral WBCs percentage SEM. Statistical differences were determined using the unpaired t test. Statistical results were calculated using the graphPad Prism software.

| SMILES | Inflammatory infiltration, in particular of eosinophils [1] | CXCR4 internalization in response to CXCL12 (CXCR4) | Peripheral blood hypercellularity (WBCs) (MRL/lpr mice) |
| --- | --- | --- | --- |
| COc1cc(/C=C/C(=O)c2ccc(Cl)cc2)ccc1O [Chalcone-4, (E)-1-(4-Chlorophenyl)-3-(4-hydroxy-3-methoxyphenyl)prop-2-en-1-one, reference compound] | inhibits inflammatory infiltration | prevents CXCR4 internalization | – |
| COc1cc(-c2cc(-c3ccc(Cl)cc3)nc(=O)[nH]2)ccc1O [compound (1), 4-(4-Chlorophenyl)-6-(4-hydroxy-3-methoxyphenyl)pyrimidin-2(1H)-one] | – | – | significantly reduce peripheral blood hypercellularity |

Reference: patent US11046657B2, “Pyrimidinone derivatives and uses thereof to neutralize the biological activity of chemokines” (Centre National de la Recherche Scientifique (CNRS), priority 2016, dated 2021)
